From patent US6248895A, “Benzofuroxan compound, method of preparation, pharmaceutical composition and method of treatment using the same” (Torrent Pharmaceuticals Ltd., priority 1998, dated 2001)

Columns and labels:
MABP = experiment: Drop in mean arterial blood pressure (MABP) after i.v. administration; assay type: in vivo, guinea pig; conditions: 20% fall in MABP
Procedure: Guinea pigs of either sex, weighing approximately 400-600 g were used for this study. […] Standard limb lead II electrocardiogram was recorded continuously. All the recordings were carried out on a MacLab system (AD Instruments, UK).
Determination of the Ed20 Values for Drop in Mabp
Atleast three animals were used for each dose. […] All doses were injected in a final volume of 1 ml/kg. […] The specificity of the test compound was defined by the selectivity index, which was shown below: [formula]

[1] = test system: vasopressin induced T-wave elevation; experiment: Anti-anginal effect: suppression of vasopressin induced T-wave elevation in anesthetized guinea pigs; assay type: in vivo, guinea pig; conditions: for Selectivity Index A/B (C): ED20 for fall in B.P. (A) / ED50 for T-wave inhibition (B); for Dose required for 50% inhibition of T-wave (ED50) (B): i.v.
Description: b) In vivo Pharmacological Screening
A modified method of Benedini et al (1995) was adopted for studying the anti-anginal effect of the chosen compounds. Guinea pigs of either sex, weighing approximately 400-600 g were used for this study. Animals were anesthetized with urethane (1.25 g/kg, i.p.) and jugular vein was cannulated for intravenous administration of drugs/vehicle. Mean arterial blood pressure (MABP) was monitored by a cannula inserted into the right carotid artery and connected to a pressure transducer. Standard limb lead II electrocardiogram was recorded continuously. All the recordings were carried out on a MacLab system (AD Instruments, UK).
The ability of the test compounds to suppress the vasopressin induced T-wave elevation was used as the model for studying the anti-anginal effects of the compounds. Guinea pigs were divided into two groups for the purpose of this study, i) control group (pretreated with the vehicle for the compound) and ii) drug treated group.
In this group of animals the solvent used for dissolving the test compound was administered intravenously in a volume of 1 ml/kg. The basal T-wave heights, heart rates and MABP and changes after vehicle administration were noted. Thirty seconds later 1 I.U./ml/kg of vasopressin was administered intravenously. The T-wave heights, heart rates and MABP and their changes after vasopressin administration were also noted. The T-wave elevation (after vasopressin administration), maximum rise in MABP, and changes in heart rate were calculated from the above data and expressed as mean±standard deviation.
The effects of the test compound in suppressing the T-wave elevation caused by vasopressin were evaluated with atleast three dose levels. Groups of 6 guinea pigs were used for each dose. The test compound was injected 30 seconds prior to vasopressin administration. Changes in MABP, heart rate and T-waves were recorded as described for the control group. The percentage inhibition of vasopressin induced T-wave elevation was calculated for each dose taking the T-wave height estimated in control group as 100%. From the dose vs percent inhibition relationship, the dose required for 50% inhibition (ED50) for the T-wave elevation was estimated.
In a separate group of animals the drop in MABP after administration of the test compound (dose range of 0.1-1000 μg/kg, i.v.) was studied. Atleast three animals were used for each dose. Care was taken so that the doses were given only after the MABP had stabilized from the effects of the previous dose. All doses were injected in a final volume of 1 ml/kg. […] From this graph the dose required to produce a 20% fall in MABP (ED20) was calculated. The specificity of the test compound was defined by the selectivity index, which was shown below: [formula]

[2] = test system: thoracic aorta (albino rabbit, helical strips, endothelium removed); experiment: In vitro screening of NO donors: relaxation of endothelium-denuded rabbit thoracic aorta strips, before and after GTN-induced tolerance; assay type: cell-based; conditions: relative to GTN; for Mean Relative Potency After Tolerance: after tolerance induced by 440 μM GTN for 90 min
Procedure: a) In vitro Screening of NO Donors
The method adopted was a modified method of Nishikawa et al (1982). Albino rabbits of either sex were stunned and exsanguinated. Thoracic aorta was quickly removed and cut helically (at an angle of […]) into strips 4-5 mm wide and 25 to 30 mm long, after removal of adventitial connective tissue. The endothelium was rubbed off gently using a cotton swab soaked in Kreb's solution. Two strips were fixed vertically in organ baths containing 20 ml. Kreb's solution maintained at 37° C. and bubbled with oxygen. A resting tension of 4 g was applied and the preparation was allowed to equilibrate for 30 min. Each preparation was exposed to two primer doses of KCl (30 mM). After the contraction reached a maximum, the bath was drained off and replaced with fresh Kreb's solution. Half an hour later, cumulative dose response curve for the test compound was taken on one tissue (test) and for glyceryl trinitrate (GTN) in the other (standard). The dose range used was from 10^-9 M to 10^-3 M with a contact period of 4 min. for each dose.
Tolerance was induced in both the tissues by adding 440 μM of GTN for 90 minutes. During this period the bath solution was changed every 30 min. and 440 μM of GTN was replaced. Later both the tissues were washed thoroughly and the dose response curve (DRC) for both the test and the standard were repeated. The percentage relaxation with individual doses was calculated by taking the maximum relaxations to 10^-4 M papaverine as 100% relaxation. A graph was plotted by taking the percentage relaxation vs the log (M) concentration of the compounds.

[3] = conventional nitrates like GTN; cited from earlier work
[4] = 30 seconds prior to vasopressin 1 I.U./ml/kg

For “5(6)-(2-nicotinamide ethyloxycarbonyl) benzofuroxan hydrochloride [Compound 1]”, the “Dose needed for 20% fall in B.P. (ED20) (A)” value (MABP) was 0.45802 mg/kg, the “Selectivity Index A/B (C)” value [1] was 0.517 and the “selectivity index as compared to GTN (in words)” value (“selectivity index … (in words)” below) [1] was “high selectivity index as compared to GTN”. The “Dose required for 50% inhibition of T-wave (ED50) (B)” value (from here on “Dose required for 50% inhibition”) [1, 4] was 0.88642 mg/kg, the “Mean Relative Potency After Tolerance” value [2] was 8.4 and the “Mean Relative Potency Before Tolerance” value [2] was 0.2.
With `CC1(C)OCC(COC(=O)c2ccc3c(c2)no[n+]3[O-])O1` (racemic) [Compound 10, 5(6)-((±)-2,2-dimethyl-1,3-dioxolane-4-methyloxycarbonyl) benzofuroxan] the “Dose needed for 20% fall in B.P. (ED20) (A)” value (MABP) was 0.286 mg/kg, the “Selectivity Index A/B (C)” value [1] was 0.58 and the “selectivity index … (in words)” value [1] was “high selectivity index as compared to GTN”. The “Dose required for 50% inhibition” value [1, 4] was 0.492 mg/kg, the “Mean Relative Potency After Tolerance” value [2] was 10.13 and the “Mean Relative Potency Before Tolerance” value [2] was 0.39.
With `O=C(NCCOC(=O)c1ccc2c(c1)no[n+]2[O-])c1ccncc1` [Compound 2, 5(6)-(2-isonicotinamideethyloxycarbonyl)benzofuroxan] the “Mean Relative Potency After Tolerance” value [2] was 6.94 and the “Mean Relative Potency Before Tolerance” value [2] was 0.06.
In the case of `O=C(OCCN1CCCC1=O)c1ccc2c(c1)no[n+]2[O-]` [Compound 3, 5(6)-(2-pyrolidinone ethyloxycarbonyl) benzofuroxan], the “Dose needed for 20% fall in B.P. (ED20) (A)” value (MABP) is reported as 0.13952 mg/kg, the “Selectivity Index A/B (C)” value [1] is reported as 0.152 and the “Dose required for 50% inhibition” value [1, 4] is reported as 0.67561 mg/kg. The “Mean Relative Potency After Tolerance” value [2] was 25 and the “Mean Relative Potency Before Tolerance” value [2] was 0.11.
With `CC(O)COC(=O)c1ccc2c(c1)no[n+]2[O-]` (stereo not drawn) [Compound 4, 5(6)-(2-hydroxypropyloxycarbonyl) benzofuroxan] the “Mean Relative Potency After Tolerance” value [2] was 11.22 and the “Mean Relative Potency Before Tolerance” value [2] was 0.28.
With `O=C(OCCN1CCOCC1)c1ccc2c(c1)no[n+]2[O-]` [Compound 5, 5(6)-(2-morpholinoethyloxycarbonyl)benzofuroxan] the “Mean Relative Potency After Tolerance” value [2] was 4.12 and the “Mean Relative Potency Before Tolerance” value [2] was 0.18.
With `COCCOC(=O)c1ccc2c(c1)no[n+]2[O-]` [Compound 6, 5(6)-(2-methyloxyethyloxycarbonyl) benzofuroxan] the “Dose needed for 20% fall in B.P. (ED20) (A)” value (MABP) was 0.22634 mg/kg, the “Selectivity Index A/B (C)” value [1] was 0.67 and the “selectivity index … (in words)” value [1] was “high selectivity index as compared to GTN”. For the same compound, the “Dose required for 50% inhibition” value [1, 4] was 0.3379 mg/kg, the “Mean Relative Potency After Tolerance” value [2] was 17.02 and the “Mean Relative Potency Before Tolerance” value [2] was 0.97.
With `O=C(OCC(O)CO)c1ccc2c(c1)no[n+]2[O-]` (stereo not drawn) [Compound 7, 5(6)-(2,3-dihydroxypropyloxycarbonyl) benzofuroxan] the “Mean Relative Potency After Tolerance” value [2] was 3.49 and the “Mean Relative Potency Before Tolerance” value [2] was 0.17.
For `CCOCCOC(=O)c1ccc2c(c1)no[n+]2[O-]` [Compound 8, 5(6)-(2-ethoxyethyloxycarbonyl) benzofuroxan], the “Mean Relative Potency After Tolerance” value [2] was 11.9 and the “Mean Relative Potency Before Tolerance” value [2] was 0.2.
In the case of `O=C(OCc1cccnc1)c1ccc2c(c1)no[n+]2[O-]` [Compound 9, 5(6)-(3-pyridinemethoxycarbonyl) benzofuroxan], the “Dose needed for 20% fall in B.P. (ED20) (A)” value (MABP) is reported as 0.22716 mg/kg, the “Selectivity Index A/B (C)” value [1] is reported as 0.61 and the “selectivity index … (in words)” value [1] is reported as “high selectivity index as compared to GTN”. The “Dose required for 50% inhibition” value [1, 4] was 0.37285 mg/kg, the “Mean Relative Potency After Tolerance” value [2] was 8.05 and the “Mean Relative Potency Before Tolerance” value [2] was 0.53.
With `O=C(OC1COC2C(O[N+](=O)[O-])COC12)c1ccc2c(c1)no[n+]2[O-]` (stereo not drawn) [Compound 11, 5(6)-(isosorbide mononitrateoxy carbonyl) benzofuroxan] the “Mean Relative Potency After Tolerance” value [2] was 7 and the “Mean Relative Potency Before Tolerance” value [2] was 0.25.
In the case of `O=[N+]([O-])OCC(CO[N+](=O)[O-])O[N+](=O)[O-]` [GTN, glyceryl trinitrate, reference compound], the ED20 (MABP; Cavia porcellus, iv, read-out: Dose needed for 20% fall in B.P. (ED20) (A)) is reported as 0.00822 mg/kg, the ED50 ([1]; Cavia porcellus, iv, 30 seconds prior to vasopressin 1 I.U./ml/kg, read-out: Dose required for 50% inhibition of T-wave (ED50) (B)) is reported as 0.474 mg/kg and the “Selectivity Index A/B (C)” value [1] is reported as roughly 0.017. For the same compound, the “side effects as a manifestation of hypotensive effect” value [3] was “tachycardia, retrosternal discomfort, palpitations, collapse, syncope and postural hypotension”.
